Experimental data published in US12502369B2, “Methods of cancer treatment” (K-GEN, INC., priority 2015, dated 2025).
“Also recorded” adds a separate entry of the source. Where two headings read alike, the source gives them in different places.

How the values were obtained:
MiaPaCa-2 = test: Proliferation assay (CellTiter Glo), MiaPaCa-2; format: cell-based; conditions: for Top inhibition %: 96 hours
Protocol: (§1) Briefly, cells at a density of 1,000-10,000 cells/well were seeded in 96-well plates and incubated at 37′C for 24 hours. A series of 9 different concentrations of compound stocks (500×) were created by 3-fold serial dilution in DMSO. These compounds were further diluted in culture media and then added to cells so that the final DMSO concentration was 0.2%. After 96 hours of incubation, 50 μL of CellTiter Glo reagent (Promega) was added to each well and luminescence was measured after 10 minutes using EnVision (PerkinElmer). […] The dose range for most compounds was 4.6 nM-30 μM. The dose ranges for some compounds were adjusted downward to 0.46 nM-3 μM or 0.08 nM-0.5 μM or 0.03 nM-0.2 μM. Luminescence from cells treated with […] alone was set as Max and % of inhibition was calculated as follows: Inhibition %=(Max-Sample value)/Max*100. Data was analyzed using XL-fit software (ID Business Solutions Ltd.) and EC50, relative EC50, and % of top inhibition were calculated.

BxPC-3 = test: Proliferation assay (CellTiter Glo), BxPC-3; format: cell-based; conditions: BxPC-3 (WT K-ras)
Protocol: as §1
(§2) Other cancer cell lines having wild-type K-ras status and K-ras mutation at G12 were also screened using the PKC activator compounds. […] K-104 was tested in a range of 0.03 nM-0.2 μM. […] The dose ranges were adjusted downward to 0.46 nM-3 μM for K-102 and 0.08 nM-0.5 μM for K-103 for some cell lines.

SW900 = test: Proliferation assay (CellTiter Glo), SW900; format: cell-based; conditions: SW900 (K-ras: G12V)
Protocol: as §1, §2

A549 cells = test: Soft agar colony formation assay; format: cell-based; conditions: 7-10 days, 9-point dilution series
Protocol: To prepare the base agar layer (0.6%), melted 1.2% agar solution was mixed 1:1 (v/v) with 2×DMEM/20% FBS medium in a tube by inverting several times and 50 μL of the mixture was immediately transferred to a well in a 96-well flat-bottom microplate. The plate was placed at 4° C. for 30 minutes to allow the base agar layer to solidify. Then, the cell agar layer (agar 0.4%) was prepared by transferring 75 μL of the cell and agar mixture containing 1:1:1 (v/v/v) of 1.2% agar solution, 2×DMEM/20% FBS and cell suspension (0.4-4×10^5/mL) to each well of the plates so that each well contained 1000-10000 cells per well. The plates were placed at 4° C. for 15 minutes and then 75 μL of media were added to each well. After incubating the plates overnight in a CO2 incubator, 50 μL of media with or without 5× final concentrations of compounds were added to each well. Each compound was tested in 9-point 3-fold dilution series. The plates were incubated for 7-10 days at 37° C. At the end of incubation period, 28 μL of Calcein AM solution (5 μM) was added to the center of each well. The plates were incubated at 37° C. for 45 minutes before scanning on Acumen (TTP Labtech). Each compound was tested in triplicates. Data was analyzed and compound EC50s were calculated using GraphPad Prism 5.

[1] = tested on: PKC substrates in A549 cells; test: Global PKC activation (phosphorylated PKC substrates), Western blot, A549; format: cell-based; conditions: 30 minutes, Phospho-PKC substrate Motif MultiMab
Protocol: (§3) A549 lung cancer cells (˜3 million cells) were seeded in 10 cm tissue culture dishes and grown overnight. Cells were then treated with different drugs at indicated concentrations (see FIG. 9A for global activation of PKC and FIG. 10 for activation of PKC isoforms) for 30 minutes. Panc2.13 pancreatic cells (˜5 million) were seeded and treated as in FIG. 9B for global activation of PKC. Cell lysate preparation, protein quantitation, SDS-PAGE, and Western blotting procedures are described in Example 2. Primary antibodies used in this Example and later Examples of this application are shown in Table A. Western blot membranes were scanned using Odyssey® Imaging System (Licor Biosciences) if secondary antibodies Anti-mouse IgG Dylight 800 conjugate or Anti-rabbit IgG DyLight 680 conjugate (1:10000)(Cell signaling or similar IR 2nd antibodies from different vendors) were used. Alternatively, Imagequant LAS4000 (GE) was used to scan membranes if secondary antibodies Anti-mouse IgG HRP conjugate or Anti-rabbit IgG HRP conjugate (dilutions from 1:2000-1:10000) were used.

[2] = tested on: PKC substrates in Panc2.13 cells; test: Global PKC activation (phosphorylated PKC substrates), Western blot, Panc2.13; format: cell-based; conditions: Phospho-(Ser) PKC Substrate Antibody
Protocol: as §3

[3] = tested on: PKC isoforms in A549 cells; test: Activation of PKC isoforms, Western blot, A549; format: cell-based; conditions: 30 minutes; for P-PKC (pan)(βII Ser660) and P-PKCα/β (Thr638/641): high levels already in DMSO treated cells
Protocol: as §3

PKCδ = PKCδ Tyr311 phosphorylation in A549, HCT116, SW620, Panc02.13 cells, Western blot; format: cell-based; conditions: 30 minutes
Protocol: Non-cancerous lung fibroblast cell line HFL-1 or cancer cells (2-8 million cells) were seeded in 10 cm dishes and grown overnight so that the cells were about 40-80% confluent before treatment with the compound. Cells were then treated with different drugs at indicated concentrations (see descriptions for FIG. 11 and FIG. 12) for 30 minutes. Cell lysate preparation, protein quantitation, SDS-PAGE, and Western blotting procedures are described in Example 2 and 4. Primary antibodies used in this Example and later Examples of this application are shown in Table A. Secondary antibodies Anti-mouse IgG HRP conjugate or Anti-rabbit IgG HRP conjugate (dilutions from 1:2000-1:10000) were used. Western blot membranes were scanned using Imagequant LAS4000 (GE). The results are shown in FIG. 11A and FIG. 11B for HFL-1 cells and FIG. 11C and FIG. 12 for A549 cells.

[4] = tested on: PKCδ, PKCμ, c-Raf in MBT-2; test: Activation of PKC isoforms in bladder cancer line MBT-2, Western blot; format: cell-based, mouse
[5] = tested on: PKCδ, PKCμ, c-Raf in MH22A; test: Activation of PKC isoforms in hepatoma cell line MH22A, Western blot; format: cell-based, mouse
MBT-2 = test: Anti-cell proliferative effects, MBT-2; format: cell-based, mouse
[6] = tested on: PKC isoforms in Panc2.13 cells; test: Time course of activation of PKC isoforms in Panc2.13; format: cell-based; conditions: extended periods (16 h and 24 h)
Protocol: Cells of pancreatic cancer cell line Panc2.13 were seeded as described above, and the cell confluence was between 40-80% the next day. […] Phosphorylation at multiple PKC isoforms, such as Ser744/748 or Ser916 for PKCμ, phosphorylation at Thr638/641 for PKCα/β, phosphorylation at Ser660 for PKCβII (pan-PKC), phosphorylation at Ser643/676 for PKCδ/θ, and phosphorylation at Thr505 for PKCδ, were detected.

Row | SMILES | Top inhibition % (MiaPaCa-2) | EC50 (MiaPaCa-2; Homo sapiens, MIA PaCa-2, absolute EC50, 96 hours, read-out: Ab EC50) | EC50 (MiaPaCa-2; Homo sapiens, MIA PaCa-2, relative EC50, 96 hours, read-out: Re EC50) | Top inhibition % (BxPC-3) | Top inhibition % (SW900) | number of colonies formed in soft agar (A549 cells) | phosphorylation of PKC substrates (global activation of PKC) [1] | phosphorylation of PKC substrates (global activation of PKC) [2] | P-PKCδ (Thr505) and P-PKCδ/θ (Ser643/676) [3] | P-PKC (pan)(βII Ser660) and P-PKCα/β (Thr638/641) [3] | PKCδ activation, phosphorylation at Tyr311 (PKCδ) | phosphorylations of PKCδ at Thr505, PKCμ at Ser744/748, PKCμ at Ser916, c-Raf at Ser338 [4] | phosphorylation of PKCδ at Thr505, PKCμ at Ser744/748, PKCμ at Ser916, c-Raf at Ser338 [5] | sensitivity to anti-cell proliferative effects (MBT-2) | reducing the phosphorylation at Ser643/676 of PKCδ/θ ([6]; K101A 1 μM versus K102, K103) | phosphorylations of PKCδ at Thr505, PKCμ at Ser744/748, PKCμ at Ser916, c-Raf at Ser338 ([4]; MBT-2, K101A 1 μM, K102 0.1 μM) | phosphorylation of PKCδ at Thr505, PKCμ at Ser744/748, PKCμ at Ser916, c-Raf at Ser338 ([5]; MH22A, basal levels high, K101A 1 μM, K102 0.1 μM) | reducing the phosphorylation at βII Ser660 of PKC (pan), to a lesser extent Thr638/641 of PKCα/β ([6]; K102 0.1 μM, K103 0.01 μM versus K101A) | EC50 (MiaPaCa-2; absolute EC50, 96 hours, read-out: Ab EC50) | EC50 (MiaPaCa-2; relative EC50, 96 hours, read-out: Re EC50)
1 | CC(=O)O[C@@]12C[C@@H](C)[C@]3(O)C4C=C(C)C(=O)[C@@]4(O)CC(CO)=C[C@H]3[C@@H]1C2(C)C (stereo partly shown) [Compound K-101A, Prostratin] | 74.4% | 300 nM | 180 nM | 40.11% | 7.1% | reduced the number of colonies | induced dose-dependent phosphorylation | induced dose-dependent phosphorylation | dose-dependent increases | no further increases | observed for cell lines HCT116 and SW620 but not as significantly for cell lines A549 and Pan 02,13; also recorded: observed for cell lines HCT116 and SW620 but not as significantly for cell lines A549 and Panc02.13 | induced phosphorylations | did not induce further phosphorylation | sensitive | more potent | – | – | – | – | –
2 | C/C=C(/C)C(=O)O[C@H]1C(C)=C[C@]23C(=O)[C@@H](C=C(CO)[C@@H](O)[C@]12O)[C@H]1[C@@H](C[C@H]3C)C1(C)C [Compound K-102, Ingenol-3-angelate, reference compound] | – | – | – | – | – | reduced the number of colonies | induced dose-dependent phosphorylation | induced dose-dependent phosphorylation | dose-dependent increases | no further increases | observed for PKC activator insensitive cell lines HCT116 and SW620 but not as significantly for sensitive cell lines A549 and Pan 02,13; also recorded: observed for cell lines HCT116 and SW620 but not as significantly for cell lines A549 and Panc02.13 | – | – | sensitive | – | induced phosphorylations | did not induce further phosphorylation | more potent | – | –
3 | CC(=O)OCC1=C[C@H]2[C@@H]3C(C)(C)[C@]3(OC(C)=O)C[C@@H](C)[C@]2(O)C2C=C(C)C(=O)[C@@]2(O)C1 (stereo partly shown) [Compound K-101E] | 61.4% | – | – | 38.87% | 25.4% | reduced the number of colonies | nearly no effect | nearly no effect | no effects | – | – | – | – | – | – | – | – | – | 1880 nM | 860 nM
